Read-outs that look alike come from different tables or passages of the source.
Key:
[1] = Storage stability of retinoic acid precursor (RAP) in caprylic capric triglyceride at 45° C, RAP amount by HPLC; format: physicochemical; conditions: for Initial RAP Concentration, Week 0 / RAP Concentration, Week 1 / RAP Concentration, Week 4 / RAP Concentration, Week 20: Example 1, caprylic capric triglyceride carrier, storage 45° C, ER 0.35% where present
Procedure: Compositions were prepared with caprylic capric triglyceride as the carrier to 100%. Storage was maintained at 45° C. Assessment of RAP amount in the formulae was achieved via HPLC using ASTM Standards. […]

[2] = as above; format: physicochemical; conditions: Example 3; RAP alone, no SBA (ratio —)

Row | Compound | Effect on stability of the RAPs (in words) [1] | Week 4 % Remaining [1] [%] | Week 20 % Remaining [1] [%] | Initial RAP Concentration, Week 0 [1] [%] | RAP Concentration, Week 1 [1] | RAP Concentration, Week 4 [1] [%] | RAP Concentration, Week 20 [1] [%] | Week 4 % Remaining ([1]; 4 week, 0.1 %) [%] | Week 20 % Remaining ([1]; 20 week, 0.1 %) [%] | Week 0 Concentration [2] | Week 1 Concentration [2] | Week 4 Concentration [2]
1 | CCc1ccc(O)cc1O [4-ethyl resorcinol] | improves the stability of the RAPs by preventing oxidation | – | – | – | – | – | – | – | – | – | – | –
2 | COc1ccc(C(=O)COC(=O)\C=C(C)/C=C/C=C(C)/C=C/C2=C(C)CCCC2(C)C)cc1 [Retextra ®, hydroxyanasatil retinoate] | – | 0 | 0 | 0.36 | 0.14% | 0 | 0 | – | – | – | – | –
3 | CC1=C(/C=C/C(C)=C/C=C/C(C)=C/CO)C(C)(C)CCC1 [Retinol] | – | – | – | 0.1 | 0.042% | 0.001 | 0 | 1 | 0 | 0.1 | 0.042 | 0.001
4 | CCC(=O)OC/C=C(C)/C=C/C=C(C)/C=C/C1=C(C)CCCC1(C)C [Retinyl Propionate] | – | 84 | 0 | 0.38 | No | 0.32 | 0 | – | – | 0.38 | 0.38 | 0.32
